Measurements reported in PubChem BioAssay AID1963835 (Molecular Pharmacology Branch, DTP, NCI, 2024).

Test system: 699152-130-R-J1-PDC complex spheroid viability
Experiment: Anticancer human tumor 699152-130-R-J1-PDC patient-derived pancreatic carcinoma cell line growth inhibition [POLQ]
Settings: for IC50: curve of first compound; for viability, T/C: stronger effect = lower value
Method in brief: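 Three-cell-type spheroids modelling solid tumor plus stroma served as the readout system; POL inhibitors were tested individually and in combination, concentration ranges set by clinical Cmax where known.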

[1] = second compound 0.0316 µM, first compound 0.0316 µM
[2] = second compound 0.0316 µM, first compound 0.1 µM
[3] = second compound 0.0316 µM, first compound 0.316 µM
[4] = second compound 0.0316 µM, first compound 1 µM
[5] = second compound 0.0316 µM, first compound 3.16 µM
[6] = second compound 0.0316 µM, first compound 10 µM
[7] = second compound 0.1 µM, first compound 0.0316 µM
[8] = second compound 0.1 µM, first compound 0.1 µM
[9] = second compound 0.1 µM, first compound 0.316 µM
[10] = second compound 0.1 µM, first compound 1 µM
[11] = second compound 0.1 µM, first compound 3.16 µM
[12] = second compound 0.1 µM, first compound 10 µM
[13] = second compound 0.316 µM, first compound 0.0316 µM
[14] = second compound 0.316 µM, first compound 0.1 µM
[15] = second compound 0.316 µM, first compound 0.316 µM
[16] = second compound 0.316 µM, first compound 1 µM
[17] = second compound 0.316 µM, first compound 3.16 µM
[18] = second compound 0.316 µM, first compound 10 µM
[19] = second compound 1 µM, first compound 0.0316 µM
[20] = second compound 1 µM, first compound 0.1 µM
[21] = second compound 1 µM, first compound 0.316 µM
[22] = second compound 1 µM, first compound 1 µM
[23] = second compound 1 µM, first compound 3.16 µM
[24] = second compound 1 µM, first compound 10 µM
[25] = second compound 3.16 µM, first compound 0.0316 µM
[26] = second compound 3.16 µM, first compound 0.1 µM
[27] = second compound 3.16 µM, first compound 0.316 µM
[28] = second compound 3.16 µM, first compound 1 µM
[29] = second compound 3.16 µM, first compound 3.16 µM
[30] = second compound 3.16 µM, first compound 10 µM
[31] = second compound 10 µM, first compound 0.0316 µM
[32] = second compound 10 µM, first compound 0.1 µM
[33] = second compound 10 µM, first compound 0.316 µM
[34] = second compound 10 µM, first compound 1 µM
[35] = second compound 10 µM, first compound 3.16 µM
[36] = second compound 10 µM, first compound 10 µM
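Further: spheroids exposed to agents for 7 days before viability reading.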
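Wherever viability, T/C is given: percent of DMSO vehicle control viability so 100% = vehicle and 0% = no viable signal.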

Q: How did the IC50 (second compound 0.0316 µM) turn out when `O=c1[nH]cc(F)c(=O)[nH]1` + Nc1ccc(C#CCN(C(=O)Cc2ncc(C(F)(F)F)cc2C(F)(F)F)c2ccc(F)cc2)nn1 was run?
A: > 10 µM

Q: And the IC50 (second compound 0.1 µM)?
A: > 10 µM

Q: What about the IC50 (second compound 0.316 µM) of the same molecule?
A: > 10 µM

Q: What about the IC50 (second compound 1 µM) of the same molecule?
A: > 10 µM

Q: What about the IC50 (second compound 3.16 µM) of the same molecule?
A: > 10 µM

Q: And the IC50 (second compound 10 µM)?
A: > 10 µM

Q: And the viability, T/C [1]?
A: 105%

Q: And the viability, T/C [2]?
A: 105%

Q: And the viability, T/C [3]?
A: 99.3%

Q: And the viability, T/C [4]?
A: 97.9%

Q: What about the viability, T/C [5] of the same molecule?
A: 98.1%

Q: What about the viability, T/C [6] of the same molecule?
A: 82.1%

Q: What about the viability, T/C [7] of the same molecule?
A: 100%

Q: What about the viability, T/C [8] of the same molecule?
A: 121%

Q: And the viability, T/C [9]?
A: 104%

Q: What about the viability, T/C [10] of the same molecule?
A: 88.7%

Q: What about the viability, T/C [11] of the same molecule?
A: 97.3%

Q: And the viability, T/C [12]?
A: 76.9%

Q: What about the viability, T/C [13] of the same molecule?
A: 108%

Q: And the viability, T/C [14]?
A: 104%

Q: And the viability, T/C [15]?
A: 103%

Q: What about the viability, T/C [16] of the same molecule?
A: 102%

Q: What about the viability, T/C [17] of the same molecule?
A: 97.5%

Q: What about the viability, T/C [18] of the same molecule?
A: 81.5%

Q: And the viability, T/C [19]?
A: 113%

Q: What about the viability, T/C [20] of the same molecule?
A: 95.5%

Q: What about the viability, T/C [21] of the same molecule?
A: 97.6%

Q: And the viability, T/C [22]?
A: 103%

Q: And the viability, T/C [23]?
A: 87.8%

Q: And the viability, T/C [24]?
A: 75.9%

Q: And the viability, T/C [25]?
A: 111%

Q: And the viability, T/C [26]?
A: 104%

Q: What about the viability, T/C [27] of the same molecule?
A: 93.9%

Q: And the viability, T/C [28]?
A: 95.6%

Q: And the viability, T/C [29]?
A: 104%

Q: What about the viability, T/C [30] of the same molecule?
A: 88.4%

Q: What about the viability, T/C [31] of the same molecule?
A: 116%

Q: And the viability, T/C [32]?
A: 110%

Q: What about the viability, T/C [33] of the same molecule?
A: 119%

Q: And the viability, T/C [34]?
A: 105%

Q: What about the viability, T/C [35] of the same molecule?
A: 105%

Q: What about the viability, T/C [36] of the same molecule?
A: 87.7%

Q: For `COc1cc(C2c3cc4c(cc3C(OC3OC5COC(C)OC5C(O)C3O)C3COC(=O)C23)OCO4)cc(OC)c1O` (stereo unspecified) + Nc1ccc(C#CCN(C(=O)Cc2ncc(C(F)(F)F)cc2C(F)(F)F)c2ccc(F)cc2)nn1, which IC50 (second compound 0.0316 µM) is on record?
A: 9.72 µM

Q: What about the IC50 (second compound 0.1 µM) of the same molecule?
A: 5.57 µM

Q: What about the IC50 (second compound 0.316 µM) of the same molecule?
A: 3.86 µM

Q: And the IC50 (second compound 1 µM)?
A: 4.26 µM

Q: What about the IC50 (second compound 3.16 µM) of the same molecule?
A: 6.31 µM

Q: What about the IC50 (second compound 10 µM) of the same molecule?
A: 8.26 µM

Q: What about the viability, T/C [1] of the same molecule?
A: 85.2%

Q: What about the viability, T/C [2] of the same molecule?
A: 84.2%

Q: And the viability, T/C [3]?
A: 79.5%

Q: What about the viability, T/C [4] of the same molecule?
A: 76.3%

Q: And the viability, T/C [5]?
A: 53.9%

Q: What about the viability, T/C [6] of the same molecule?
A: 50.1%

Q: What about the viability, T/C [7] of the same molecule?
A: 105%

Q: What about the viability, T/C [8] of the same molecule?
A: 89%

Q: And the viability, T/C [9]?
A: 77.9%

Q: And the viability, T/C [10]?
A: 70.5%

Q: What about the viability, T/C [11] of the same molecule?
A: 52.5%

Q: And the viability, T/C [12]?
A: 44.9%

Q: And the viability, T/C [13]?
A: 108%

Q: What about the viability, T/C [14] of the same molecule?
A: 90.6%

Q: What about the viability, T/C [15] of the same molecule?
A: 79.8%

Q: What about the viability, T/C [16] of the same molecule?
A: 69.1%

Q: And the viability, T/C [17]?
A: 48.1%

Q: What about the viability, T/C [18] of the same molecule?
A: 41.2%

Q: And the viability, T/C [19]?
A: 92.2%

Q: What about the viability, T/C [20] of the same molecule?
A: 81.9%

Q: And the viability, T/C [21]?
A: 78%

Q: What about the viability, T/C [22] of the same molecule?
A: 74.9%

Q: And the viability, T/C [23]?
A: 49.6%

Q: And the viability, T/C [24]?
A: 48.8%

Q: What about the viability, T/C [25] of the same molecule?
A: 103%

Q: What about the viability, T/C [26] of the same molecule?
A: 85%

Q: And the viability, T/C [27]?
A: 81%

Q: What about the viability, T/C [28] of the same molecule?
A: 69.2%

Q: What about the viability, T/C [29] of the same molecule?
A: 53.1%

Q: And the viability, T/C [30]?
A: 46.8%

Q: What about the viability, T/C [31] of the same molecule?
A: 115%

Q: What about the viability, T/C [32] of the same molecule?
A: 85.6%

Q: What about the viability, T/C [33] of the same molecule?
A: 89.4%

Q: What about the viability, T/C [34] of the same molecule?
A: 65.8%

Q: What about the viability, T/C [35] of the same molecule?
A: 53%

Q: And the viability, T/C [36]?
A: 50.7%

Q: Which results are given for `C#Cc1c(F)ccc2cc(O)cc(-c3ncc4c(N5CC6CCC(C5)N6)nc(OCC56CCCN5CC(F)C6)nc4c3F)c12` (stereo unspecified) + COC1C(OC(N)=O)C(O)C(Oc2ccc3c(O)c(NC(=O)c4ccc(O)c(CC=C(C)C)c4)c(=O)oc3c2C)OC1(C)C?
A: IC50 (second compound 0.0316 µM): < 0.0316 µM; IC50 (second compound 0.1 µM): < 0.0316 µM; IC50 (second compound 0.316 µM): < 0.0316 µM; IC50 (second compound 1 µM): < 0.0316 µM; IC50 (second compound 3.16 µM): < 0.0316 µM; IC50 (second compound 10 µM): < 0.0316 µM; viability, T/C [1]: 24.1%; viability, T/C [2]: 22.1%; viability, T/C [3]: 15.1%; viability, T/C [4]: 14.3%; viability, T/C [5]: 13.6%; viability, T/C [6]: 14.2%; viability, T/C [7]: 25.4%; viability, T/C [8]: 21.3%; viability, T/C [9]: 17%; viability, T/C [10]: 11.4%; viability, T/C [11]: 12.7%; viability, T/C [12]: 11.7%; viability, T/C [13]: 26.2%; viability, T/C [14]: 18.8%; viability, T/C [15]: 16.5%; viability, T/C [16]: 12.8%; viability, T/C [17]: 13.2%; viability, T/C [18]: 11.3%; viability, T/C [19]: 26.8%; viability, T/C [20]: 22.6%; viability, T/C [21]: 17.7%; viability, T/C [22]: 13.2%; viability, T/C [23]: 11.9%; viability, T/C [24]: 12.4%; viability, T/C [25]: 26.3%; viability, T/C [26]: 19.6%; viability, T/C [27]: 18.8%; viability, T/C [28]: 13.7%; viability, T/C [29]: 12.4%; viability, T/C [30]: 12.2%; viability, T/C [31]: 23.9%; viability, T/C [32]: 22.3%; viability, T/C [33]: 17.2%; viability, T/C [34]: 14.2%; viability, T/C [35]: 13.8%; viability, T/C [36]: 12.7%
